Laboratory results: US12370236B2, “Method and combination for the suppression of COVID-19 virus” (priority 2021, dated 2025)

What was measured:
[1] = tested on: SARS-CoV2 hCoV-19/Taiwan/NTU13/2020; assay: Plaque reduction assay in Vero E6 cells; type: cell-based
[2] = Cytotoxicity assay; type: cell-based; conditions: African green monkey, Vero E6 cells
Procedure: (§1) FIGS. 6A and 6B show the cytotoxicity of norvancomycin (NV) and nelfinavir (NF). The percentage of cell survival is determined by obtaining cell viability of Vero E6 cells in the presence of drugs of interest and trace amount of DMSO that help fully dissolve the drug, normalized by Vero E6 cells in the presence of the same concentration of said DMSO, which serves as a control, the cell viability in the absence of the drugs. 50% cytotoxic concentration (CC50) represents the concentration of NV and NF required to reduce cell survival by 50%.
(§2) Cytotoxicity assay was performed using Vero E6 cells described above to determine the cytotoxicity of tested compounds, i.e., norvancomycin and nelfinavir. DMSO, the solvent used to help fully dissolve the drugs of interest, was used as the negative control. The percentage of cell survival and 50% cytotoxic concentration (CC50) were derived.

[3] = tested on: Vero E6 cells; assay: Cytotoxicity assay; type: cell-based
Procedure: as §1, §2

[4] = target: T1, 3CL^pro (Severe acute respiratory syndrome coronavirus 2, UniProt P0DTD1); assay: FRET-based 3CL^pro enzyme activity assay; type: biochemical, SARS-CoV2
T1 construct: A 3CL^pro (Cat. #78042-1) assay kit (BPS Bioscience, CA, USA) was used; purchased BPS Bioscience 78042-1
Procedure: FIG. 1 is a scheme of the fluorogenic 3CL^pro protease enzymatic assay. The fluorescence of Edans in the C-terminal of the peptide substrate (Dabcyl-[…]-Edans, the cleavage site is in between the amino acids Q and S) is quenched by the Dabcyl in the N-terminus without the 3CL^pro enzymatic cleavage. After the protease is added and cleaves the peptide substrate, the quencher molecule Dabcyl can no longer quench the fluorophore Edans which results in an increase in fluorescence emission at 460 nm. The intensity of this fluorescence is proportional to the protease activity. FRET: fluorescence resonance energy transfer.
3CL^pro inhibition percentage of different test groups is determined by “(Isubstrate+3CLpro−Itest_group)/(Isubstrate+3CLpro−Isubstrate)×100%, where “I” is the observed intensity of blue fluorescence light (at 460 nm); Isubstrate and Isubstrate+3CLpro are supposed to give the lowest and the highest intensity, respectively, where the substrate is a peptide labeled by a quencher and fluorophore at its N- and C-termini (as shown in FIG. 1). Specifically, the fluorescence of Edans in the C-terminal of the peptide (Dabcyl-[…]-Edans; the cleavage site is in between the amino acids Q and S) is quenched by the Dabcyl in the N-terminus in the absence of the 3CL^pro enzymatic cleavage. Norvancomycin (Nv) is the interface blocker here while the FDA drugs boceprevir (Bc) and GC376 (in its clinical trials) are the active-site inhibitors. The results are shown by the average value of two replicates.
The FRET-based assay was designed for 3CL^pro activity assay and explained in FIG. 1. The 3CL^pro enzyme assay was developed in a 96-well black microplate with a total volume of 50 μL. 30 μL of 0.5 ng/μL enzyme in a reaction buffer was added into each well, followed by the addition of 10 μL substrate solution to a final concentration of 40 μM. Enzymatic reaction gave fluorescence whose intensity was measured after incubation for 4 hours at 37° C. with slow shaking in a microtiter plate reading fluorimeter (BioTek Synergy HTX multi-mode reader, VT, US) with Ex=340 nm/Em=460 nm. […]

Row | Structure (SMILES) | suppression of SARS-CoV2 replication ([1]; 0.9 μM nelfinavir) [%] | suppression of SARS-CoV2 replication ([1]; 1.8 μM nelfinavir) [%] | suppression of SARS-CoV2 replication ([1]; 1.8 μM nelfinavir together with 37.5 μM norvancomycin) [%] | suppression of SARS-CoV2 replication ([1]; 3.6 μM nelfinavir) [%] | suppression of SARS-CoV2 replication ([1]; 3.6 μM nelfinavir and 37.5 μM norvancomycin) [%] | CC50 [2] [µM] | cell survival rate ([3]; 1.8 μM nelfinavir) [%] | cell survival rate ([3]; 3.6 μM nelfinavir) [%] | suppression of SARS-CoV2 replication ([1]; 40 μM norvancomycin) [%] | extra 3CL^pro inhibition vs GC376 alone ([4]; 25 μM norvancomycin in combination with 16 nM GC376) [%] | additional 3CL^pro inhibition ([4]; 50 μM norvancomycin in combination with 25 μM boceprevir) [%] | elevation of 3CL^pro inhibition ([4]; co-used with 25 μM boceprevir at molar ratio 1:1) | CC50 [3] [µM]
1 | Cc1c(O)cccc1C(=O)N[C@@H](CSc1ccccc1)[C@H](O)CN1C[C@H]2CCCC[C@H]2C[C@H]1C(=O)NC(C)(C)C [nelfinavir] | 41 | 35 | 100 | 100 | 100 | 8.26 ± 0.495 | 84 | 69 |  |  |  |  | 
2 | CC(C)C[C@@H](N)C(=O)N[C@H]1C(=O)N[C@@H](CC(N)=O)C(=O)N[C@H]2C(=O)N[C@H]3C(=O)N[C@H](C(=O)N[C@H](C(=O)O)c4cc(O)cc(O)c4-c4cc3ccc4O)[C@H](O)c3ccc(c(Cl)c3)Oc3cc2cc(c3O[C@@H]2O[C@H](CO)[C@@H](O)[C@H](O)[C@H]2O[C@H]2C[C@](C)(N)[C@H](O)[C@H](C)O2)Oc2ccc(cc2Cl)[C@H]1O [Norvancomycin] |  |  |  |  |  |  |  |  | 4 | 10 | 17 | around 10% | > 100
